Patent publication US20160178628A1, “Electrical Cell-substrate Impedance Sensor (ECIS)” (priority 2015, published 2016)

Assays:
[1] = test system: tubulin assemblies of MCF-7 cells; assay: Confocal microscopy of tubulin assemblies of MCF-7 cells; type: cell-based, human
Procedure: In addition, an un-treated control sample was prepared as reference for comparison. Then, samples were washed with PBS and permeabilized with microtubule stabilizing buffer [80 mM PIPES-KOH (pH 6.8), 5 mM EGTA, and 1 mM MgCl2 containing 0.5% Triton X-100] for 5 min at room temperature before being fixed with chilled absolute methanol for 10 min at −20° C. Thereafter, the fixed cells were washed and incubated with monoclonal mouse anti-α-tubulin antibody (Sigma Co.) for 1 hour at room temperature followed by incubation with FITC-conjugated antimouse IgG antibody (Santa Cruz Biotechnology). The stained cells were mounted with Vectashield (Vector Laboratories, Burlingame, Calif.) and observed by confocal microscopy.

[2] = test system: MCF-7 cells; assay: SiNW-ECIS impedance and capacitance measurement of drug-treated MCF-7 cells; type: cell-based, human; conditions: for change of norm in impedance of treated cells, T1 vs. T2: 2 hours vs. 6 hours after drug incubation; for norm of capacitive changes, control sample more than treated sample: 6 hours after drug incubation (T2)
Procedure: In this example, the diagnostic response of cells membrane to extremely low dose of antitubulin drugs is investigated. Initially, MCF-7 cell lines, isolated from grade I human breast tumors, were obtained from the National Cell Bank of Iran (Pasteur Institute). Then, cells were maintained in a CO2 incubator (37° C., 5% CO2) in RPMI-1640 medium supplemented with 5% fetal bovine serum, and 1% penicillin/streptomycin. The fresh medium was replaced every other day. Then, the cultured cells were dropped on the surface of the SiNW-ECIS, designed and fabricated pursuant to teachings of the present application. Prior to each experiment, cells were trypsinized to be detached from the substrate and resuspended on the SiNW surface. To minimize the effect of trypsinization, the procedure may last for less than 4 minutes at room temperature of about 20° C. The samples were held in an incubator for about 4 hours to achieve cells attachment on the SiNWs. Thereafter, the ABZ drug with low concentrations of about 2.1 nano-moles per liter and the PTX drug with low concentrations of about 0.1 nano-moles per liter were added to individual samples. Finally, the signal recording and biological assays were investigated about 2 hours and 6 hours after the drug treatment (6 hours and 10 hours after the beginning of culturing process).
Referring to FIGS. 12A-12G, comparative normalized diagrams of impedance (designated by ΔZ % and represented by solid black lines) and capacitance changes (designated by ΔC % and represented by dashed grey lines) are illustrated for MCF-7 cells seeded on SiNW electrodes after treating by 2.1 nano-moles per liter of ABZ and 0.1 nano-moles per liter of PTX. The time interval between the drug incubation and the signal extraction are 2 hours (designated by T1) and 6 hours (designated by T2). In addition, the same diagrams are plotted for control sample prepared with no drug treatment stage.
According to the method described in the present example, the samples were maintained in an incubator so that the signal extraction was repeated 10 hours after cells dropping (6 hours after drug incubation for treated samples) to monitor the time evolution of drug induced MT polymerization/depolymerization on bioelectrical response of the membrane.

[3] = MCF-7, ABZ 2.1 nano-moles per liter, 2 hours after drug incubation (T1)
[4] = MCF-7, ABZ 2.1 nano-moles per liter
[5] = MCF-7, PTX 0.1 nano-moles per liter, 2 hours after treatment (T1)
[6] = MCF-7, PTX 0.1 nano-moles per liter

SMILES	spindle / microtubule morphology (confocal image) ([1]; MCF-7, ABZ 2.1 nano-moles per liter, 2 hours after treatment)	spindle / microtubule morphology (confocal image) ([1]; MCF-7, ABZ 2.1 nano-moles per liter, 6 hours after treatment)	changes in membrane impedance versus control [2, 3] [%]	variations in capacitance of the sensor versus control [2, 3] [%]	change of norm in impedance of treated cells, T1 vs. T2 [2, 4]	norm of capacitive changes, control sample more than treated sample [2, 4]	spindle / microtubule morphology (confocal image) ([1]; MCF-7, PTX 0.1 nano-moles per liter, 2 hours after treatment)	spindle / microtubule morphology (confocal image) ([1]; MCF-7, PTX 0.1 nano-moles per liter, 6 hours after treatment)	variation in mean capacitance of the sensor versus control [2, 5]	variation in mean impedance of the sensor versus control [2, 5]	change of norm in impedance of treated cells, T1 vs. T2 [2, 6] [%]	norm of capacitive changes, control sample more than treated sample [2, 6] [%]
CCCSc1ccc2nc(NC(=O)OC)[nH]c2c1 [ABZ, Albendazole]	abnormally reduced numbers of spindles or monopolar (monoaster) spindles	monoastered MTs are observable	25	70	about 60%	about 90%						
CC(=O)O[C@H]1C(=O)[C@@]2(C)[C@H]([C@H](OC(=O)c3ccccc3)[C@]3(O)C[C@H](OC(=O)[C@H](O)[C@@H](NC(=O)c4ccccc4)c4ccccc4)C(C)=C1C3(C)C)[C@]1(OC(C)=O)CO[C@@H]1C[C@@H]2O [PTX, Paclitaxel]							aggregated spindles	increased aggregation in MT spindles	about 60%	about 50%	15	~75
